Laboratory results reported in publication PMC7366380, “Discovery of a Potent and Selective Covalent Inhibitor and Activity-Based Probe for the Deubiquitylating Enzyme UCHL1, with Antifibrotic Activity” (Journal of the American Chemical Society, 2020).
“Also recorded” adds a separate entry of the source.

Key:
[1] = tested on: 20 DUBs; assay: Biochemical DUB selectivity profiling (FP and FI assays), whole panel
[2] = target: T1, UCHL1 (Homo sapiens, UniProt P09936); assay: Reversible inhibition (jump dilution) assay with Ub-AMC; type: biochemical; set-up: rapidly targets endogenous UCHL1 in cells; endogenous in cells; host or cells: HEK293; details: UCHL1 300 nM, compound 400 nM, 30 min, 100x dilution
T1 sequence (P09936 1-223): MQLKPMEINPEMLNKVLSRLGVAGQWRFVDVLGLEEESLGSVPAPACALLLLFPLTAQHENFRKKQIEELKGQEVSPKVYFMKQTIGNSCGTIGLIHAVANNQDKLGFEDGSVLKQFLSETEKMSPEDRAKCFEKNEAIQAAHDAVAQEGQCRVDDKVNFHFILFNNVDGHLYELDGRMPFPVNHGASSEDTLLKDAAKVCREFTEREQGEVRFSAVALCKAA
Protocol: Figure S2. UCHL1 kinetics
(a) Kinetic analysis of UCHL1 (3 nM)-catalyzed cleavage of varied concentrations of Ub-AMC.
(b) Non-linear fit of Michaelis –Menten equation to initial reaction velocities versus Ub-AMC […]
(c) Apparent rate of inhibition (ka) of compound 1 and 2 at varying concentrations. Ub-AMC (130 nM) fluorescence intensity was measured in the presence of UCHL1 (3 nM). The apparent rate constant for inhibition, ka/I was determined by linear regression, giving the absolute value of the rate constant kobs/I values for […]
13000) M-1s-1, respectively. […]
intensity read immediately for 1 h. […]
The excess ligand was removed by washing with buffer D in an Amicon® Ultra MWCO 10 kDa centrifugation spin filter three times. The protein-adducts were desalted using 3× SDB-XC polystyrene-divinylbenzene copolymer extraction disks, following published methods.5 Samples were eluted with 50% (v/v) MeCN 0.5% (v/v) formic acid in LC-MS grade water and analyzed by LC-ESI (ACQUITY UPLC H-Class PLUS instrument (Waters)) using an ACQUITY UPLC BEH C4 column (Waters) coupled with Waters LCT Premier MS detector. […]
(§1) The MS data was analyzed by PEAKS Studio 8.5 (Bioinformatics Solutions Inc.). […]
(§2) Homogeneous time resolved fluorescence (HTRF) assay […]
(§3) BME) and incubated for 30 min at room temperature. […] The plates were sealed and incubated overnight at 4 °C then read using a PHERAstar (BMG), and the Delta F calculated: […]

[3] = target: T1, UCHL1; details: HEK293T, 1 h treatment, immunoblot
[4] = target: T1, UCHL1; assay: UCHL1 covalent adduct site identification (tryptic digest, nanoLC-MS/MS, PEAKS); type: binding; set-up: (residues 1-223, Uniprot P09936); GST (N, cleaved yes); made in house; host or cells: E. coli Rosetta 2(DE3), pGEX-6P-1; details: for site of UCHL1 modification: UCHL1 5 μM, compound 13 μM, 1 h, tryptic digest
Protocol: b) 2 modification: 96% peptide sequence coverage
Figure S9. Identification of modification sites by nanoLC-MS/MS.
Recombinant UCHL1 (5 µM) was incubated with compound 1 or 2 (13 µM) for 1 h at room temperature. The labeled protein was digested with trypsin and analyzed by nanoLC-MS/MS.
The data was processed in PEAKS 8.0. 82% and 96% of UCHL1 peptide sequence coverage for (a) 1, or (b) 2 modification, respectively. The high confidence modification of compound 1 […]
Statistical data and peptide lists from PEAKS are detailed in Supplementary Data S1. […]
values were plotted against compound concentration to afford the apparent second order rate constant for inhibition, ka/I. The absolute value of the second order rate constant kobs/I was […]
Reversible inhibition assay: Jump dilution assays were performed by incubating UCHL1 […]
negative controls (iodoacetamide (IAA) 10 mM) for 30 min at room temperature. The reaction […]
intensity read immediately for 1 h.
UCHL1 covalent adduct determination […]
pH 7.5) was incubated with compound 1, 2 (2.5 equiv.) or DMSO for 1 h at room temperature.
The excess ligand was removed by washing with buffer D in an Amicon® Ultra MWCO 10 kDa centrifugation spin filter three times. The protein-adducts were desalted using 3× SDB-XC polystyrene-divinylbenzene copolymer extraction disks, following published methods.5 Samples were eluted with 50% (v/v) MeCN 0.5% (v/v) formic acid in LC-MS grade water and analyzed by LC-ESI (ACQUITY UPLC H-Class PLUS instrument (Waters)) using an ACQUITY UPLC BEH C4 column (Waters) coupled with Waters LCT Premier MS detector.
UCHL1 covalent adduct site identification
Compound-protein adduct samples were prepared as described above and digested with trypsin (Promega, 1:50 trypsin:UCHL1 ratio) at 37 °C, overnight. […]
as §1, §2, §3

reversibility of inhibition after dilution [2]	in-cell competition for HA-Ub-VME labeling of UCHL1 [3]	SMILES	activity/selectivity in cross-screening against 20 DUBs [1]	site of UCHL1 modification [4]	Peptide carrying the compound 2 modification (C, +381.16) ([4]; recombinant UCHL1 (P09936) treated with compound 2, tryptic digest, PEAKS, PTM code n = Compound 2 modification (C))
		N#CN1CCC[C@@H]1C(=O)N1CCc2c(-c3c[nH]c4ncccc34)cccc21 [Compound 3]	inactive		
slowly reversible	concentration-dependent competition	N#CN1CCC[C@H]1C(=O)N1CCc2c(-c3c[nH]c4ncccc34)cccc21 [Compound 1]	exquisite selectivity	catalytic cysteine 90; also recorded: catalytic cysteine (Cys90)	
slowly reversible	concentration-dependent competition	C#Cc1cnc2[nH]cc(-c3cccc4c3CCN4C(=O)[C@@H]3CCCN3C#N)c2c1 [Compound 2]		catalytic cysteine 90; also recorded: catalytic cysteine (Cys90)	QTIGNSC(+381.16)GTIGLIHAVANNQDKLGFEDGSVLK; also recorded: QTIGNSC(+381.16)GTIGLIHAVANNQDK; also recorded: QTIGNSC(+381.16)GTIGLIHAVANNQDKLGFEDGSVLKQFLSETEK
